41 compounds from US5981545A, “N-linked azabicyclic heterocycles useful for treating dementia” (Beecham Group p.l.c., priority 1989, dated 1999) can be followed below.

SMILES strings stand for the structures. Where a name gives a salt, the structure may show the parent alone.

Assay [1] concerns the target muscarinic receptors. Kind of assay: Radio ligand binding, displacement of muscarinic agonist 3H-Oxotremorine-M (3H-OXO-M), rat cerebral cortex membranes. Details: species or system Hooded Lister rats. The settings on record: 2 nM 3H-OXO-M, 2 mM magnesium chloride, tris pH 7.7, 37° C., 30 min.
Assay [2] concerns the target muscarinic receptors. Put plainly: Radio ligand binding, displacement of muscarinic antagonist 3H-Quinuclidinyl Benzilate (3H-QNB), rat cerebral cortex membranes. Set-up: species or system Hooded Lister rats. To be noted: 0.27 nM 3H-QNB, tris pH 7.7, 37° C., 30 min.

Consider `Cc1ccn(C2CN3CCC2CC3)n1` (racemic) [E1, (±) 3-(3-Methylpyrazol-1-yl)-1-azabicyclo[2.2.2]octane oxalate salt], for which the half-inhibitory concentration (IC50) at muscarinic receptors [1] is 369 nM; at muscarinic receptors [2], 5000 nM.

On to `c1cnn(C2CN3CCC2CC3)c1` (racemic) [E2, (±) 3-(Pyrazol-1-yl)-1-azabicyclo[2.2.2]octane dihydrochloride salt], for which the half-inhibitory concentration (IC50) on muscarinic receptors [1] came out at 1250 nM; at muscarinic receptors [2] it was 35000 nM.

In the case of `Cc1ncn(C2CN3CCC2CC3)n1` (racemic) [E6, (±) 3-(3-Methyl-1,2,4-triazol-1-yl)-1-azabicyclo[2.2.2] octane dihydrochloride salt], the results for the IC50 on muscarinic receptors [1] and on muscarinic receptors [2] were 67.5 nM and 5600 nM, respectively.

In the case of `c1ncn(C2CN3CCC2CC3)n1` (racemic) [E7, (±) 3-(1,2,4-Triazol-1-yl)-1-azabicyclo[2.2.2]octane dihydrochloride salt], the IC50 on muscarinic receptors [1] worked out at 475 nM; at muscarinic receptors [2], 44000 nM.

In the case of `Cc1nnn(C2CN3CCC2CC3)n1` (racemic) [E10, (±) 3-(5-Methyltetrazol-2-yl)-1-azabicyclo[2.2.2]octane hydrochloride salt], the IC50 on muscarinic receptors [1] was 30 nM; at muscarinic receptors [2], 2800 nM.

As to `Nc1nnn(C2CN3CCC2CC3)n1` (racemic) [E11, (±) 3-(5-Aminotetrazol-2-yl)-1-azabicyclo[2.2.2]octane], the IC50 was 38 nM on muscarinic receptors [1] and 6500 nM on muscarinic receptors [2].

Turning to `Cc1cnn(C2CN3CCC2CC3)n1` (racemic) [E12, (±) 3-(4-Methyl-1,2,3-triazol-2-yl)-1-azabicyclo-[2.2.2]octane hydrochloride], the IC50 at muscarinic receptors [1] came out at 260 nM; on muscarinic receptors [2], 2100 nM.

With `c1nnn(C2CN3CCC2CC3)n1` (racemic) [E15, (±) 3-(Tetrazol-2-yl)-1-azabicyclo[2.2.2]octane hydrochloride salt], the half-inhibitory concentration (IC50) on muscarinic receptors [1] was determined as 242 nM; on muscarinic receptors [2] it was 28100 nM.

Regarding `c1nnnn1C1CN2CCC1CC2` (racemic) [E16, (±) 3-(Tetrazol-1-yl)-1-azabicyclo[2.2.2]octane hydrochloride salt], the half-maximal inhibitory concentration (IC50) was 2750 nM at muscarinic receptors [1] and 110000 nM at muscarinic receptors [2].

Regarding `c1ncn(C23CCCN(CC2)C3)n1` (racemic) [E27, (±) 5-(1,2,4-Triazol-1-yl)-1-azabicyclo[3.2.1]octane dihydrochloride salt], the IC50 on muscarinic receptors [1] came to 12 nM; on muscarinic receptors [2] it was 3200 nM.

As for `Cc1ncn(C23CCCN(CC2)C3)n1` (racemic) [E28, (±) 5-(3-Methyl-1,2,4-triazol-1-yl)-1-azabicyclo-[3.2.1]octane dihydrochloride salt], the IC50 on muscarinic receptors [1] turned out to be 17 nM; at muscarinic receptors [2] it was 2600 nM.

Compound `c1nnnn1C12CCCN(CC1)C2` (racemic) [E30, (±) 5-(tetrazol-1-yl)-1-azabicyclo[3.2.1]octane] yielded a 50% inhibitory concentration (IC50) on muscarinic receptors [1] of 1400 nM.

Consider `Cc1nnn(C23CCCN(CC2)C3)n1` (racemic) [E31, (±) 5-(5-Methyltetrazol-2-yl)-1-azabicyclo[3.2.1]octane], for which the values for the IC50 on muscarinic receptors [1] and on muscarinic receptors [2] were 11.5 nM and 2900 nM, respectively.

For the compound `Nc1nnn(C23CCCN(CC2)C3)n1` (racemic) [E33, (±) 5-(5-Aminotetrazol-2-yl)-1-azabicyclo[3.2.1]octane], the values for the IC50 at muscarinic receptors [1] and at muscarinic receptors [2] were 7.5 nM and 6200 nM, respectively.

`Nc1nnnn1C12CCCN(CC1)C2` (racemic) [E34, (±) 5-(5-aminotetrazol-1-yl)-1-azabicyclo[3.2.1]octane] yielded a half-maximal inhibitory concentration (IC50) on muscarinic receptors [1] of 1400 nM.

For the compound `Nc1ncn(C23CCCN(CC2)C3)n1` (racemic) [E36, (±) 5-(3-Amino-1,2,4-triazol-1-yl)-1-azabicyclo[3.2.1]octane], the values for the IC50 on muscarinic receptors [1] and at muscarinic receptors [2] were 19.5 nM and 6750 nM, respectively.

Consider `Nc1ncnn1C12CCCN(CC1)C2` (racemic) [E37, (±) 5-(5-amino-1,2,4-triazol-1-yl)-1-azabicyclo[3.2.1]octane], for which the half-maximal inhibitory concentration (IC50) on muscarinic receptors [1] was 130 nM; on muscarinic receptors [2], 58000 nM.

Take `Nc1ncn(C2CN3CCC2CC3)n1` (racemic) [E38, (±) 3-(3-Amino-1,2,4-triazol-1-yl)-1-azabicyclo-[2.2.2]octane]: the IC50 on muscarinic receptors [1] amounted to 180 nM; on muscarinic receptors [2] it was 14500 nM.

Take `Nc1ncnn1C1CN2CCC1CC2` (racemic) [E39, (±) 3-(5-amino-1,2,4-triazol-1-yl)-1-azabicyclo[2.2.2]octane dihydrochloride salt]: the IC50 at muscarinic receptors [1] stood at 14500 nM.

For the compound `Brc1nnn(C2CN3CCC2CC3)n1` (racemic) [E40, (±) 3-[5-Bromotetrazol-2-yl]-1-azabicyclo[2.2.2]octane oxalate salt], the IC50 on muscarinic receptors [1] came out at 19.7 nM; at muscarinic receptors [2], 488 nM.

For `Clc1nnn(C2CN3CCC2CC3)n1` (racemic) [E44, (±) 3-(5-Chlorotetrazol-2-yl)-1-azabicyclo[2.2.2]octane oxalate salt], the IC50 on muscarinic receptors [1] is 31.8 nM; at muscarinic receptors [2], 725 nM.

Regarding `N#Cc1nnn(C2CN3CCC2CC3)n1` (racemic) [E46, (±) 3-(5-Cyanotetrazol-2-yl)-1-azabicyclo[2.2.2]octane oxalate salt], the IC50 was found to be 1400 nM at muscarinic receptors [1] and 7750 nM at muscarinic receptors [2].

Turning to `Brc1ncn(C2CN3CCC2CC3)n1` (racemic) [E47, (±) 3-(3-Bromo-1,2,4-triazol-1-yl)-1-azabicyclo[2.2.2]-octane oxalate salt], the IC50 was 100 nM at muscarinic receptors [1] and 3300 nM at muscarinic receptors [2].

`Clc1ncn(C2CN3CCC2CC3)n1` (racemic) [E48, (±) 3-(3-Chloro-1,2,4-triazol-1-yl)-1-azabicyclo[2.2.2] octane oxalate salt]: the IC50 at muscarinic receptors [1] amounted to 195 nM; on muscarinic receptors [2], 9000 nM.

Turning to `Clc1nnn(C23CCCN(CC2)C3)n1` (racemic) [E49, (±) 5-(5-Chlorotetrazol-2-yl)-1-azabicyclo[3.2.1]octane oxalate salt], the figures for the half-maximal inhibitory concentration (IC50) on muscarinic receptors [1] and on muscarinic receptors [2] were 3.2 nM and 500 nM, respectively.

With `Brc1nnn(C23CCCN(CC2)C3)n1` (racemic) [E50, (±) 5-(5-Bromotetrazol-2-yl)-1-azabicyclo[3.2.1]octane], the half-maximal inhibitory concentration (IC50) at muscarinic receptors [1] turned out to be 6.5 nM; at muscarinic receptors [2] it was 410 nM.

For `Cc1ncn([C@@H]2CN3CC[C@@H]2C3)n1` (relative stereo) [E8, (±) exo-3-(3-Methyl-1,2,4-triazol-1-yl)-1-azabicyclo-[2.2.1]heptane dihydrochloride salt], the IC50 is 22 nM on muscarinic receptors [1] and 6300 nM on muscarinic receptors [2].

With `c1ncn([C@@H]2CN3CC[C@@H]2C3)n1` (relative stereo) [E9, (±) exo-3-(1,2,4-Triazol-1-yl)-1-azabicyclo[2.2.1]heptane dihydrochloride salt], the IC50 at muscarinic receptors [1] was 48 nM; at muscarinic receptors [2] it was 43000 nM.

As to `Nc1nnn([C@H]2C[C@@H]3CCN(C3)C2)n1` (relative stereo) [E17, (±) exo-3-(5-Aminotetrazol-2-yl)-1-azabicyclo[3.2.1] octane hydrochloride], the IC50 at muscarinic receptors [1] turned out to be 170 nM; on muscarinic receptors [2], 2700 nM.

As to `Nc1nnn([C@@H]2CN3CC[C@@H]2C3)n1` (relative stereo) [E18, (±) exo-3-(5-Aminotetrazol-2-yl)-1-azabicyclo[2.2.1] heptane], the 50% inhibitory concentration (IC50) was 2.62 nM on muscarinic receptors [1] and 4300 nM at muscarinic receptors [2].

`c1nnn([C@@H]2CN3CC[C@@H]2C3)n1` (relative stereo) [E19, (±) exo-3-(Tetrazol-2-yl)-1-azabicyclo[2.2.1]heptane hydrochloride salt]: the half-maximal inhibitory concentration (IC50) at muscarinic receptors [1] was 30 nM; on muscarinic receptors [2], 22300 nM.

On to `Cc1nnn([C@@H]2CN3CC[C@@H]2C3)n1` (relative stereo) [E20, (±) exo-3-(5-Methyltetrazol-2-yl)-1-azabicyclo[2.2.1] heptane hydrochloride salt], for which the half-maximal inhibitory concentration (IC50) at muscarinic receptors [1] amounted to 4.5 nM; on muscarinic receptors [2], 3000 nM.

For the compound `Cc1nnnn1[C@@H]1CN2CC[C@@H]1C2` (relative stereo) [E21, (±) exo-3-(5-Methyltetrazol-1-yl)-1-azabicyclo[2.2.1] heptane hydrochloride salt], the 50% inhibitory concentration (IC50) at muscarinic receptors [1] was found to be 6600 nM; on muscarinic receptors [2], 310000 nM.

Take `c1nnn([C@H]2C[C@@H]3CCN(C3)C2)n1` (relative stereo) [E22, (±) exo-3-(Tetrazol-2-yl)-1-azabicyclo[3.2.1]octane hydrochloride salt]: the IC50 on muscarinic receptors [1] is 153 nM; at muscarinic receptors [2] it was 55000 nM.

With `CCc1nnn([C@@H]2CN3CC[C@@H]2C3)n1` (relative stereo) [E23, (±) exo-3-(5-Ethyltetrazol-2-yl)-1-azabicyclo[2.2.1] heptane hydrochloride salt], the IC50 on muscarinic receptors [1] was determined as 325 nM; on muscarinic receptors [2], 3300 nM.

As for `Cc1cnn([C@@H]2CN3CC[C@@H]2C3)n1` (relative stereo) [E25, (±) exo-3-(4-Methyl-1,2,3-triazol-2-yl)-1-azabicyclo-[2.2.1]heptane hydrochloride salt], the IC50 on muscarinic receptors [1] amounted to 180 nM; on muscarinic receptors [2], 22000 nM.

For `Brc1nnn([C@@H]2CN3CC[C@@H]2C3)n1` (relative stereo) [E41, (±) exo-3-(5-Bromotetrazol-2-yl)-1-azabicyclo[2.2.1]heptane oxalate salt], the half-maximal inhibitory concentration (IC50) came out at 6.5 nM on muscarinic receptors [1] and 1500 nM on muscarinic receptors [2].

As for `Clc1nnn([C@@H]2CN3CC[C@@H]2C3)n1` (relative stereo) [E42, (±) exo-3-(5-Chlorotetrazol-2-yl)-1-azabicyclo[2.2.1]heptane oxalate salt], the results for the half-inhibitory concentration (IC50) on muscarinic receptors [1] and on muscarinic receptors [2] were 7.6 nM and 700 nM, respectively.

In the case of `Ic1nnn([C@@H]2CN3CC[C@@H]2C3)n1` (relative stereo) [E43, (±) exo-3-(5-Iodotetrazol-2-yl)-1-azabicyclo[2.2.1]heptane oxalate salt], the IC50 at muscarinic receptors [1] came out at 42 nM; at muscarinic receptors [2], 330 nM.

`Brc1ncn([C@@H]2CN3CC[C@@H]2C3)n1` (relative stereo) [E54, (±) exo-3-(3-Bromo-1,2,4-triazol-1-yl)-1-azabicyclo-[2.2.1]heptane oxalate salt]: the figures for the IC50 on muscarinic receptors [1] and on muscarinic receptors [2] were 32 nM and 4400 nM, respectively.

Consider `Cc1ncn(C2=CN3CCC2CC3)n1` [E5, 3-(3-Methyl-1,2,4-triazol-1-yl)-1-azabicyclo[2.2.2]oct-2-ene dihydrochloride], for which the IC50 came out at 651 nM at muscarinic receptors [1] and 30300 nM on muscarinic receptors [2].

As a reminder, the IC50 is the point on the concentration scale where inhibition reaches its midpoint. Read a high IC50 as lower potency.
